What was measured:
[1] = tested on: respiratory syncytial virus (RSV) strain A Long; experiment: microbe, parasite or virus in culture; assay type: cell-based; conditions: for EC50: human respiratory syncytial virus, HEL 299, read-out: EC50 (μM) RSV A Long, HEL 299
[2] = tested on: HCoV-OC43; experiment: Antiviral cytopathicity assay, HCoV-OC43 in HEL 299 cells; assay type: cell-based; conditions: for EC50: Betacoronavirus 1, OC43, HEL 299, read-out: EC50 (μM) HCoV-OC43, HEL 299
[3] = in vitro; conditions: human
[4] = tested on: yellow fever virus (YFV) strain 17 D; experiment: microbe, parasite or virus in culture; assay type: cell-based; conditions: for EC50: Yellow fever virus, Huh-7, read-out: EC50 (μM) YFV 17D, Huh7
[5] = in vitro; conditions: human; remark: listed apart in the source
[6] = in vitro; conditions: dog

Row | SMILES | EC50 [1] [µM] | EC50 [2] [µM] | CC50 [3] [µM] | EC50 [4] [µM] | CC50 [5] [µM] | CC50 [6] [µM] | biological activity against HCoV OC43 (in words) [2] | inhibition of respiratory syncytial virus RSV (strain A Long) (in words) [1] | activity against yellow fever virus YFV (strain 17D) (in words) [4]
1 | O=c1[nH]c(=O)n(C2C=CC(O)C2)cc1N1CCCCCC1 (racemic) [(±)-3a, (±)-1-(4′-Hydroxycyclopent-2′-en-1′-yl)-5-(azepan-1″-yl)uracil] | > 100 | > 100 | > 100 | > 100 | > 100 | > 100 |  |  | 
2 | O=c1[nH]c(=O)n(C2C=CC(O)C2)cc1N1CCN(c2ccccc2)CC1 (racemic) [(±)-3b, (±)-1-(4′-Hydroxycyclopent-2′-en-1′-yl)-5-(4″-phenylpiperazin-1″-yl)uracil] | > 100 | > 100 | > 100 | > 100 | > 100 | > 100 |  |  | 
3 | CCCCCCCc1ccc(Nc2cn(C3C=CC(O)C3)c(=O)[nH]c2=O)cc1 (racemic) [(±)-3f, (±)-4′-Hydroxycyclopent-2′-en-1′-yl)-5-((4′′-heptylphenyl)amino)uracil] | > 100 | 22.4 | > 100 | > 100 | > 100 | 70.4 | moderate biological activity |  | 
4 | CC(C)c1ccc(Nc2cn(C3C=CC(O)C3)c(=O)[nH]c2=O)cc1 (racemic) [(±)-3g, (±)-1-(4′-Hydroxycyclopent-2′-en-1′-yl)-5-((4″-isopropylphenyl)amino)uracil] | > 100 | > 100 | > 100 | > 100 | > 100 | > 100 |  |  | 
5 | CCCCCCCOc1ccc(Nc2cn(C3C=CC(O)C3)c(=O)[nH]c2=O)cc1 (racemic) [(±)-3i, (±)-1-(4′-Hydroxycyclopent-2′-en-1′-yl)-5-((4″-(heptyloxy)phenyl)amino)uracil] | > 100 | 36.8 |  | > 100 |  | 34 | moderate biological activity |  | 
6 | O=c1c(N2CCCCCC2)cn(C2C=CC(O)C2)c(=O)n1C1C=CC(O)C1 (racemic) [(±)-4a, (±)-1-(4′-hydroxycyclopent-2′-en-1′-yl)-3-(4‴-hydroxycyclopent-2‴-en-1‴-yl)-5-(azepan-1″-yl)uracil] | > 100 | > 100 | > 100 | > 100 | > 100 | > 100 |  |  | 
7 | O=c1c(N2CCN(c3ccccc3)CC2)cn(C2C=CC(O)C2)c(=O)n1C1C=CC(O)C1 (racemic) [(±)-4b, (±)-1-(4′-hydroxycyclopent-2′-en-1′-yl)-3-(4‴-hydroxycyclopent-2‴-en-1‴-yl)-5-(4″-phenylpiperazin-1″-yl)uracil] | > 100 | > 100 | > 100 | > 100 | > 100 | > 100 |  |  | 
8 | Cc1cc(C)cc(Oc2cn(C3C=CC(O)C3)c(=O)n(C3C=CC(O)C3)c2=O)c1 (racemic) [(±)-11a, (±)-1-(4′-hydroxycyclopent-2′-en-1′-yl)-3-(4‴-hydroxycyclopent-2‴-en-1‴-yl)-5-(3″,5″-dimethylphenoxy)uracil] | 28.7 | 29.8 |  | > 100 |  | 39.3 | moderate biological activity | inhibited | 
9 | CC(C)(C)c1ccc(Oc2cn(C3C=CC(O)C3)c(=O)n(C3C=CC(O)C3)c2=O)cc1 (racemic) [(±)-11d, (±)-1-(4′-hydroxycyclopent-2′-en-1′-yl)-3-(4‴-hydroxycyclopent-2‴-en-1‴-yl)-5-(4″-(tert-butyl)phenoxy)uracil] | > 100 | > 100 |  | 47.9 |  | 40.3 |  |  | demonstrated activity
10 | CCC(CC)COC(=O)[C@H](C)N[P@](=O)(OC[C@H]1O[C@@](C#N)(c2ccc3c(N)ncnn23)[C@H](O)[C@@H]1O)Oc1ccccc1 [Remdesivir, reference compound] | 0.01 | 0.03 | > 10 |  | > 10 |  |  |  | 
